{"source": "ChEMBL document CHEMBL5338791", "about": "“Discovery of Novel 1,3-Diphenylpyrazine Derivatives as Potent S-Phase Kinase-Associated Protein 2 (Skp2) Inhibitors for the Treatment of Cancer” (J Med Chem, 2023)", "key": {"[1]": {"assay": "Half life in plasma of NOD-SCID mouse model xenografted with human PC-3 cells at 25 mg/kg, IG measured upto 48 hrs by LC-MS/MS analysis", "type": "ADME, organism-based", "conditions": "po"}, "[2]": {"assay": "Antitumor activity against human EC1 cells assessed as cell growth inhibition incubated for 72 hrs by MTT assay", "type": "functional, cell-based", "conditions": "EC1, 72 h"}, "[3]": {"assay": "Solubility in cell culture medium by HPLC analysis", "type": "physicochemical"}, "A549": {"test_system": "A549", "assay": "Antitumor activity against human A549 cells with low Skp2 expression assessed as cell growth inhibition incubated for 72 hrs by MTT assay", "type": "functional, cell-based", "conditions": "A549, 72 h"}, "NCI-N87": {"test_system": "NCI-N87", "assay": "Antitumor activity against human NCI-N87 cells with low Skp2 expression assessed as cell growth inhibition incubated for 72 hrs by MTT assay", "type": "functional, cell-based", "conditions": "NCI-N87, 72 h"}, "PC-3 [4]": {"test_system": "PC-3", "assay": "Induction of cell cycle arrest in human PC-3 cells assessed as accumulation of cells at G1 phase at 5 uM incubated for 48 hrs by flow cytometry (reference value: 57.39 %)", "type": "functional"}, "PC-3 [5]": {"test_system": "PC-3", "assay": "Induction of cell cycle arrest in human PC-3 cells assessed as accumulation of cells at S phase at 5 uM incubated for 48 hrs by flow cytometry (reference value: 22.44 %)", "type": "functional"}, "PC-3 [6]": {"test_system": "PC-3", "assay": "Induction of cell cycle arrest in human PC-3 cells assessed as accumulation of cells at G1 phase at 10 uM incubated for 48 hrs by flow cytometry (reference value: 57.39 %)", "type": "functional"}, "PC-3 [7]": {"test_system": "PC-3", "assay": "Induction of cell cycle arrest in human PC-3 cells assessed as accumulation of cells at G2 phase at 10 uM incubated for 6 hrs by flow cytometry (reference value: 19.34 %)", "type": "functional"}, "PC-3 [8]": {"test_system": "PC-3", "assay": "Induction of cell cycle arrest in human PC-3 cells assessed as accumulation of cells at G1 phase at 10 uM incubated for 24 hrs by flow cytometry (reference value: 56.81 %)", "type": "functional"}, "PC-3 [9]": {"test_system": "PC-3", "assay": "Induction of cell cycle arrest in human PC-3 cells assessed as accumulation of cells at S phase at 10 uM incubated for 48 hrs by flow cytometry (reference value: 19.7 %)", "type": "functional"}, "MGC-803 [10]": {"test_system": "MGC-803", "assay": "Induction of cell cycle arrest in human MGC-803 cells assessed as accumulation of cells at G1 phase at 10 uM incubated for 24 hrs by flow cytometry (reference value: 57.09 %)", "type": "functional"}, "MGC-803 [11]": {"test_system": "MGC-803", "assay": "Induction of cell cycle arrest in human MGC-803 cells assessed as accumulation of cells at G2 phase at 10 uM incubated for 36 hrs by flow cytometry (reference value: 20.64 %)", "type": "functional"}, "MGC-803 [12]": {"test_system": "MGC-803", "assay": "Induction of cell cycle arrest in human MGC-803 cells assessed as accumulation of cells at G2 phase at 10 uM incubated for 48 hrs by flow cytometry (reference value: 20.64 %)", "type": "functional"}, "PC-3 [13]": {"test_system": "PC-3", "assay": "Induction of apoptosis in human PC-3 cells assessed as cell shrinkage incubated for 48 hrs", "type": "functional, cell-based", "conditions": "dose <= 10.0 µM"}, "MGC-803 [14]": {"test_system": "MGC-803", "assay": "Induction of apoptosis in human MGC-803 cells assessed as nuclear condensation incubated for 48 hrs", "type": "functional, cell-based", "conditions": "dose <= 10.0 µM"}, "PC-3 [15]": {"test_system": "PC-3", "assay": "Induction of apoptosis in human PC-3 cells assessed as viable cells at 2.5 uM incubated for 48 hrs by annexin V-FITC/PI staining based flow cytometry (reference value: 98.6 %)", "type": "functional", "conditions": "read-out: Activity"}, "PC-3 [16]": {"test_system": "PC-3", "assay": "Induction of apoptosis in human PC-3 cells assessed as early apoptotic cells at 5 uM incubated for 48 hrs by annexin V-FITC/PI staining based flow cytometry (reference value: 0.85 %)", "type": "functional"}, "PC-3 [17]": {"test_system": "PC-3", "assay": "Induction of apoptosis in human PC-3 cells assessed as late apoptotic cells at 5 uM incubated for 48 hrs by annexin V-FITC/PI staining based flow cytometry (reference value: 0.45 %)", "type": "functional"}, "PC-3 [18]": {"test_system": "PC-3", "assay": "Induction of apoptosis in human PC-3 cells assessed as early apoptotic cells at 10 uM incubated for 48 hrs by annexin V-FITC/PI staining based flow cytometry (reference value: 0.85 %)", "type": "functional"}, "MGC-803 [19]": {"test_system": "MGC-803", "assay": "Induction of apoptosis in human MGC-803 cells assessed as viable cells at 2.5 uM incubated for 48 hrs by annexin V-FITC/PI staining based flow cytometry (reference value: 98 %)", "type": "functional", "conditions": "read-out: Activity"}, "MGC-803 [20]": {"test_system": "MGC-803", "assay": "Induction of apoptosis in human MGC-803 cells assessed as late apoptotic cells at 2.5 uM incubated for 48 hrs by annexin V-FITC/PI staining based flow cytometry (reference value: 0.95 %)", "type": "functional"}, "MGC-803 [21]": {"test_system": "MGC-803", "assay": "Induction of apoptosis in human MGC-803 cells assessed as early apoptotic cells at 5 uM incubated for 48 hrs by annexin V-FITC/PI staining based flow cytometry (reference value: 0.21 %)", "type": "functional"}, "PC-3 [22]": {"test_system": "PC-3", "assay": "Antitumor activity against human PC-3 cells xenografted in NOD-SCID mouse model assessed as tumor growth inhibition at 25 mg/kg, IG administered once every 2 days for 21 days relative to control", "type": "functional", "conditions": "PC-3, po, 504 h, time 21 day, read-out: TGI"}, "PC-3 [23]": {"test_system": "PC-3", "assay": "Antitumor activity against human PC-3 cells xenografted in NOD-SCID mouse model assessed as tumor growth inhibition at 50 mg/kg, IG administered once every 2 days for 21 days relative to control", "type": "functional", "conditions": "PC-3, po, 504 h, time 21 day, read-out: TGI"}, "PC-3 [24]": {"test_system": "PC-3", "assay": "Antitumor activity against human PC-3 cells xenografted in NOD-SCID mouse model assessed as tumor suppression at 50 mg/kg, IG administered once every 2 days for 21 days relative to control", "type": "functional", "conditions": "time 21 day"}, "[25]": {"assay": "Toxicity in NOD-SCID mouse model xenografted with human PC-3 cells assessed as body weight change at 10 to 50 mg/kg, IG administered once every 2 days for 21 days", "type": "organism-based", "conditions": "in vivo, po, 504 h, dose 10-50 mg/kg, time 21 day"}, "PC-3 [26]": {"test_system": "PC-3", "assay": "Antitumor activity against human PC-3 cells xenografted in NOD-SCID mouse model assessed as p21 accumulation at 10 to 50 mg/kg, IG administered once every 2 days for 21 days by Western blot analysis", "type": "functional, organism-based", "conditions": "dose 10-50 mg/kg, time 21.0 day"}, "[27]": {"assay": "Toxicity in NOD-SCID mouse model xenografted with human MGC-803 cells assessed as drug tolerance at 10 to 50 mg/kg, IG administered once every 2 days for 21 days", "type": "organism-based", "conditions": "in vivo, po, 504 h, dose 10-50 mg/kg, time 21 day"}, "[28]": {"assay": "Toxicity in NOD-SCID mouse model xenografted with human MGC-803 cells assessed as change in liver histology at 10 to 50 mg/kg, IG administered once every 2 days for 21 days by H and E staining based analysis", "type": "organism-based", "conditions": "in vivo, po, 504 h, dose 10-50 mg/kg, time 21 day"}, "[29]": {"assay": "Toxicity in mouse assessed as decrease in platelet level at 10 to 50 mg/kg", "type": "organism-based", "conditions": "dose 10-50 mg/kg"}, "[30]": {"assay": "Metabolic stability in human liver S9 fraction assessed as half life at 20 umol/L preincubated for 5 mins followed by NADPH addition measured upto 60 mins by LC-MS/MS analysis", "type": "ADME, subcellular", "conditions": "dose 20 µmol/L, time < 65 min"}, "[31]": {"assay": "Metabolic stability in rat liver microsome assessed as half life at 20 umol/L preincubated for 5 mins followed by NADPH addition measured upto 60 mins by LC-MS/MS analysis", "type": "ADME", "conditions": "liver microsomes, dose 20 µmol/L, time < 65 min"}, "[32]": {"assay": "Half life in tumor of NOD-SCID mouse model xenografted with human PC-3 cells at 25 mg/kg, IG measured upto 48 hrs by LC-MS/MS analysis", "type": "ADME, organism-based, Neoplasm", "conditions": "po"}, "[33]": {"assay": "Cmax in tumor of NOD-SCID mouse model xenografted with human PC-3 cells at 25 mg/kg, IG measured upto 48 hrs by LC-MS/MS analysis", "type": "ADME, organism-based, Neoplasm", "set-up": "time < 48 hrs, dose 25 mg/kg, route ig", "conditions": "po"}}, "note": "Active and inactive are the calls of the source. The rule behind the calls is not given here.", "data": [{"smiles": "O=C(CCl)NC1CCN(c2cnc(-c3ccccc3)c(-c3ccccc3)n2)CC1", "values": [{"measurement": "half-life", "setting": "[1]", "result": 14.1, "unit": "h"}, {"measurement": "IC50", "setting": "[2]", "result": 7, "unit": "µM"}, {"measurement": "solubility", "setting": "[3]", "result": 3.26, "unit": "µg/mL"}, {"measurement": "IC50", "setting": "A549", "result": 18.2, "unit": "µM"}, {"measurement": "IC50", "setting": "NCI-N87", "result": 15.5, "unit": "µM"}, {"measurement": "Activity", "setting": "PC-3 [4]", "result": 44.65, "unit": "%"}, {"measurement": "Activity", "setting": "PC-3 [5]", "result": 38.7, "unit": "%"}, {"measurement": "Activity", "setting": "PC-3 [6]", "result": 39.51, "unit": "%"}, {"measurement": "Activity", "setting": "PC-3 [7]", "result": 19.87, "unit": "%"}, {"measurement": "Activity", "setting": "PC-3 [8]", "result": 38.62, "unit": "%"}, {"measurement": "Activity", "setting": "PC-3 [9]", "result": 44.19, "unit": "%"}, {"measurement": "Activity", "setting": "MGC-803 [10]", "result": 44.68, "unit": "%"}, {"measurement": "Activity", "setting": "MGC-803 [11]", "result": 19.76, "unit": "%"}, {"measurement": "Activity", "setting": "MGC-803 [12]", "result": 21.86, "unit": "%"}, {"measurement": "Activity", "setting": "PC-3 [13]", "result": "Dose-Dependent Effect"}, {"measurement": "Activity", "setting": "MGC-803 [14]", "result": "Dose-Dependent Effect"}, {"measurement": "viability at 2.5 µM", "setting": "PC-3 [15]", "result": 92.2, "unit": "%"}, {"measurement": "Activity", "setting": "PC-3 [16]", "result": 0.33, "unit": "%"}, {"measurement": "Activity", "setting": "PC-3 [17]", "result": 12, "unit": "%"}, {"measurement": "Activity", "setting": "PC-3 [18]", "result": 0.2, "unit": "%"}, {"measurement": "viability at 2.5 µM", "setting": "MGC-803 [19]", "result": 89.6, "unit": "%"}, {"measurement": "Activity", "setting": "MGC-803 [20]", "result": 6.57, "unit": "%"}, {"measurement": "Activity", "setting": "MGC-803 [21]", "result": 3.65, "unit": "%"}, {"measurement": "inhibition in vivo at 25 mg/kg", "setting": "PC-3 [22]", "result": 71.9, "unit": "%"}, {"measurement": "inhibition in vivo at 50 mg/kg", "setting": "PC-3 [23]", "result": 90.4, "unit": "%"}, {"measurement": "Activity", "setting": "PC-3 [24]", "result": 100, "unit": "%"}, {"measurement": "Activity", "setting": "[25]", "result": "Non-Toxic"}, {"measurement": "Activity", "setting": "PC-3 [26]", "result": "Active"}, {"measurement": "Activity", "setting": "[27]", "result": "Non-Toxic"}, {"measurement": "Activity", "setting": "[28]", "result": "Non-Toxic"}, {"measurement": "Activity", "setting": "[29]", "result": "Toxic"}, {"measurement": "half-life at 20 µM", "setting": "[30]", "result": 1.08, "unit": "h"}, {"measurement": "half-life at 20 µM", "setting": "[31]", "result": 0.272, "unit": "h"}, {"measurement": "half-life", "setting": "[32]", "result": 12.6, "unit": "h"}, {"measurement": "Cmax", "setting": "[33]", "result": 182, "unit": "ng/g"}]}]}
